Experimental data taken from article PMC6162288, “On-chip spatiotemporal electrophysiological analysis of human stem cell derived cardiomyocytes enables quantitative assessment of proarrhythmia in drug development” (Scientific Reports, 2018).
“Also recorded” adds a separate entry of the source.

Assays:
[1] = test system: lined-up hESC-CMs; test: MEA field potential recording of lined-up hESC-CMs (cFPD, CT, their STVs, ISI, beat rate, arrest); format: cell-based, human; details: for CT: at equivalent concentrations of Nav1.5 IC50; for Arrest: arrest cases/chips
Procedure: Human embryonic stem cell-derived cardiomyocytes clusters (hES-CMCs) were shipped from Cellectis (hES-CMCTM002, hES cell line SA002, Gothenburg, Sweden)[42],[43], and maintained in Dulbecco’s modified Eagle’s medium (DMEM) supplemented 20% heat-inactivated fetal bovaine serum, 1 mM GlutaMax, 100 U/mL penicillin, 0.1 mg/mL streptomycin, 1% nonessential amino acids and 0.1 mM β-mercaptoethanol (Invitrogen, Carsbad, CA, USA). Dispersed cardiomyocytes were isolated from hES-CMCs by a modification of the methods of Norström et al.[44]–[48]. […] The supernatant was gently aspirated with pipette, and a 5-hold volume of DMEM was added as stop solution. Remaining clusters were treats ed with the above process with several times. The supernatants were collected and centrifuged with 200 × g for 2–3 min at 4 °C. The resulting supernatant including dispersed cells was seeded into agarose microchambers on an MEA chip (MED-P530A; AlphaMED scientific. Co. Ltd., Japan)[40].
The MEA chip surface was prepared as follows. First, the chip surface was coated with collagen type I-C (Nitta Gelatin, Japan). After drying, the chip surface was coated with a 0.1% agarose gel. […] At >30 min before the start of experiment, the medium was changed to 2 mL pre-warmed fresh maintenance medium per chip.
Extracellular potential recordings of the lined-up hESC-CMs were performed using the MEA system at a sampling rate of 10 kHz with a low path filter of 2 kHz and high path filter of 1 Hz, and signals were amplified by 100–50,000 using the amplifier. The MEA chip with lined-up hESC-CMs was set in the FP measurement device and placed in a humidified cell culture incubator at 37 °C, 5% CO2. The signals were analyzed by Igor Pro 6.0 (WaveMetrics, Inc., USA) and FlexPro 7.0 (Weisang GmbH, Germany).
We adopted the same drug administration protocol as we examined previously[40] (Fig. 2B). Briefly, the MEA chips of lined-up cells for experiments were selected from the chips having 0.6–1.1 Hz beating frequency and ventricle-like waveforms of FP recordings (see Fig. 1B,D). The MEA chip was placed in the holder of the FP measurement device, and equilibrated for 5 min, and then the control FP waveforms were recorded for 10 min. Subsequently, the drug was applied to the medium at 1% dilution in serially increasing additions, and the FP waveforms were recorded for 10 min at each concentration. Finally, the drug-containing medium was replaced with fresh medium after washing three times. The last 50 beats extracted from 10 min recorded FP waveform data was used for beat rate, FPD (the time from first depolarization peak to broad repolarization peak) and CT (the time difference of the first peaks between separately placed electrodes in lined-upped cell-network) measurement at each concentration (Fig. 2C).
It was normalized (cFPD) to the beating rate of cardiomyocytes using Bazett’s correction formula based on the comparison of the slope of a plot of inter-spike interval and FPD, or corrected FPD by Bazett’s or Fridericia’s formulae (Fig. 3). The short-term variability (STV) of cFPD and CT, which was defined as the mean distance of points perpendicular to the line of identity in the Poincaré plot, was calculated ( STV=∑|D(n+1)−Dn|/(n×2) , where Dn represents the FPD and CT of n-th beating). STVs were last 50 beat data from 5 min extraction of cFPD and CT. To assess the arrhythmogenicity risk of test drugs, the mean values of cFPD, STVcFPD, CT and STVCT of each drug were plotted.

[2] = cited from earlier work; for EPTC: effective therapeutic plasma concentration
[3] = test system: Cav1.2; details: read-out: IC50 Cav1.2; cited from earlier work
[4] = Conc. 10^2 nM (0.1 μM), change vs Ctrl.
[5] = Conc. 10^3 nM (1 μM), change vs Ctrl.
[6] = Conc. 10^−1 nM, change vs Ctrl.
[7] = Conc. 10^4 nM (10 μM), change vs Ctrl.
[8] = Conc. 10^5 nM (100 μM), change vs Ctrl.
[9] = Conc. 10^5 nM (100 μM), change vs Ctrl., listed as lidocaine
[10] = Conc. 10^5 nM (100 μM), change vs Ctrl., listed as terfenadine

## Cc1cccc(CCN2CCC(C(=O)c3ccc(NS(C)(=O)=O)cc3)CC2)n1 [E-4031]
[1]; 1 μM
  STVcFPD: more than doubled
[1]; Conc. 1 nM, change vs Ctrl.
  BR (beat rate): 3.9%
  Cond. Time (CT): −4.3%
  ISI (inter-spike interval): −3.7%
  STVCT: 19%
  STVcFPD: −3.6%
  cFPD: 0.69%
[1]; Conc. 10 nM, change vs Ctrl.
  BR (beat rate): 4.5%
  Cond. Time (CT): 2.1%
  ISI (inter-spike interval): −4.2%
  STVCT: 5.7%
  STVcFPD: 17%
  cFPD: 7.1%
[1]; [4]
  Cond. Time (CT): 10%
  STVCT: 43%
  STVcFPD: 94%
  cFPD: 30%
[1]; Conc. 10^2 nM (0.1 μM), change vs Ctrl., listed as E-4301
  cFPD: 30%
[1]; Conc. 10^2 nM, change vs Ctrl.
  BR (beat rate): 5.1%
  ISI (inter-spike interval): −4.7%
[1]; [5]
  Cond. Time (CT): 49%
  STVcFPD: 110%
  cFPD: 47%
[1]; Conc. 10^3 nM (1 μM), change vs Ctrl., listed as E-4301
  cFPD: 47%
[1]; Conc. 10^3 nM, change vs Ctrl.
  BR (beat rate): 5.8%
  ISI (inter-spike interval): −5.1%
[1]; [6]
  BR (beat rate): 2.6%
  ISI (inter-spike interval): −2.5%
  STVCT: 52%
  STVcFPD: 2.9%
  cFPD: 0.52%
[1]; Conc. 10^−1 nM, change vs Ctrl., 150 μm inter-electrode distance
  Cond. Time (CT): 8.9%
[1]; any tested concentration
  CT (mean conduction time): did not significantly change; also recorded: did not increase

## CCN(CC)CC(=O)Nc1c(C)cccc1C [Lidocaine, lidocaine]
[2]
  EPTC: 5,970–25,603[69] nM
[1]; 10–100 μM, P < 0.05
  cFPD change: −18%
[1]; Conc. 10 nM, change vs Ctrl.
  BR (beat rate): 3.6%
  ISI (inter-spike interval): −3.4%
  STVCT: 46%
  STVcFPD: 54%
  cFPD: 9.5%
[1]; [4]
  Cond. Time (CT): −6.0%
  STVCT: 43%
  STVcFPD: 38%
  cFPD: 10%
[1]; Conc. 10^2 nM, change vs Ctrl.
  BR (beat rate): 4.4%
  ISI (inter-spike interval): −4.2%
[1]; [5]
  Cond. Time (CT): −7.4%
  STVCT: 35%
  STVcFPD: 54%
  cFPD: 9.7%
[1]; Conc. 10^3 nM, change vs Ctrl.
  BR (beat rate): 2.8%
  ISI (inter-spike interval): −2.6%
[1]; [7]
  Cond. Time (CT): 4.7%
  STVCT: 134%
  STVcFPD: 345%
  cFPD: −18%
[1]; Conc. 10^4 nM (10 μM), change vs Ctrl., listed as lidocaine
  STVCT: 134%
[1]; Conc. 10^4 nM, change vs Ctrl.
  BR (beat rate): −48%
  ISI (inter-spike interval): 128%
[1]; [8]
  Cond. Time (CT): 22%
  STVCT: 54%
  STVcFPD: 143%
  cFPD: −18%
[1]; [9]
  Cond. Time (CT): 22.1%
  STVCT: 54%
[1]; Conc. 10^5 nM, change vs Ctrl.
  BR (beat rate): −51%
  ISI (inter-spike interval): 160%
[1]
  CT: increased

## CC(C)(C)c1ccc(C(O)CCCN2CCC(C(O)(c3ccccc3)c3ccccc3)CC2)cc1 (stereo not drawn) [Terfenadine, terfenadine]
[2]
  EPTC: 3.3 to 9.7 nM
[2]; unbound therapeutic plasma concentration
  Unbound: 0.1 to 0.29 nM
[1]; 3 μM, n = 4, P < 0.05
  CT increase: 189%
[1]; Conc. 10 nM, change vs Ctrl.
  BR (beat rate): 4.6%
  Cond. Time (CT): 32%
  STVCT: 37%
  STVcFPD: 76%
  cFPD: 2.3%
[1]; [4]
  STVCT: 16%
  STVcFPD: −3.4%
  cFPD: 2.8%
[1]; Conc. 10^2 nM, change vs Ctrl.
  BR (beat rate): […]
  ISI (inter-spike interval): […]
[1]; [5]
  Cond. Time (CT): 101%
  STVCT: 228%
  STVcFPD: 37%
  cFPD: 0.25%
[1]; Conc. 10^3 nM (1 μM), change vs Ctrl., listed as terfenadine
  STVCT: 228%
[1]; Conc. 10^3 nM, change vs Ctrl.
  BR (beat rate): −3.0%
  ISI (inter-spike interval): 3.1%
[1]; [7]
  Cond. Time (CT): 189%
  STVCT: 511%
  STVcFPD: 65%
  cFPD: −26%
[1]; Conc. 10^4 nM (10 μM), change vs Ctrl., listed as terfenadine
  cFPD: −26%
[1]; Conc. 10^4 nM
  Arrest: 3/7
[1]; Conc. 10^4 nM, change vs Ctrl.
  BR (beat rate): −38%
  ISI (inter-spike interval): 122%
[1]; [8]
  Cond. Time (CT): 198%
  STVCT: 143%
  STVcFPD: 243%
[1]; [10]
  STVcFPD: 243%
  cFPD: −78%
[1]; Conc. 10^5 nM
  Arrest: […]
[1]; Conc. 10^5 nM, change vs Ctrl.
  BR (beat rate): −88%
  ISI (inter-spike interval): 744%
[1]; at 10 times higher than therapeutic plasma concentrations
  FPD (repolarization index): […]
[1]
  CT: increased
[1]; concentrations more than 10 μM
  FPD: FPD shortening
[3]
  IC50: […]
